Test results from patent US20230172204A1 (BASF SE, priority 2020, published 2023).

Tests used:
[1] = tested on: Phakopsora pachyrhizi (F129L); assay: Protective control of soybean rust on soybeans (PHAKPA P2); assay type: in vivo; details: for PHAKPA (F129L) Disease level (%) P2 at 16 ppm / PHAKPA (F129L) Disease level (%) P2 at 4 ppm: P2 protective, % diseased leaf area; for % PHAKPA (F129L) Disease level P2 at 4 ppm: protective P2, 4 ppm; for % PHAKPA (F129L) Disease level P2 at 4 ppm / % PHAKPA (F129L) Disease level P2 at 16 ppm: soybean rust F129L; for % PHAKPA (F129L) Disease level P2 at 16 ppm: protective P2, 16 ppm
[2] = tested on: Phakopsora pachyrhizi (F129L); assay: Protective control of soybean rust on soybeans (PHAKPA P6); assay type: in vivo; details: for PHAKPA (F129L) Disease level (%) P6 at 16 ppm / PHAKPA (F129L) Disease level (%) P6 at 4 ppm: P6 protective, % diseased leaf area; for % PHAKPA (F129L) Disease level P6 at 4 ppm: protective P6, 4 ppm; for % PHAKPA (F129L) Disease level P6 at 4 ppm / % PHAKPA (F129L) Disease level P6 at 16 ppm: soybean rust F129L; for % PHAKPA (F129L) Disease level P6 at 16 ppm: protective P6, 16 ppm

Structure (SMILES) | PHAKPA (F129L) Disease level (%) P2 at 16 ppm [1] [%] | % PHAKPA (F129L) Disease level P2 at 4 ppm [1] [%] | % PHAKPA (F129L) Disease level P2 at 16 ppm [1] [%] | PHAKPA (F129L) Disease level (%) P6 at 16 ppm [2] [%] | % PHAKPA (F129L) Disease level P6 at 4 ppm [2] [%] | % PHAKPA (F129L) Disease level P6 at 16 ppm [2] [%] | PHAKPA (F129L) Disease level (%) P2 at 4 ppm [1] [%] | PHAKPA (F129L) Disease level (%) P6 at 4 ppm [2] [%]
CO/N=C(/C(=O)OC)c1cccc(C)c1CO/N=C(\C)c1cccc(C#N)c1 [Ex. 104] | 37 | 22 | 15 | 28 | 19 | 11 |  | 
CO/N=C(\C)c1ccc(/C(C)=N/OCc2c(C)cccc2/C(=N\OC)C(=O)OC)cc1 [Ex. 181] | 12 | 22 | 11 | 5 | 33 | 5 |  | 
CNC(=O)/C(=N/OC)c1cccc(C)c1CO/N=C(\C)c1cc(C)cc(C)c1 [compound 99] |  | 43 | 12 |  | 87 | 33 |  | 
CO/N=C(/C(=O)OC)c1cccc(C)c1CO/N=C(\C)c1ccc(Cl)c(C)c1 [compound 102] |  | 60 | 11 |  | 90 | 43 |  | 
CNC(=O)/C(=N/OC)c1cccc(C)c1CO/N=C(\C)c1c(F)cccc1Cl [compound 284] |  | 63 | 44 |  | 62 | 34 |  | 
CNC(=O)/C(=N/OC)c1cccc(C)c1CO/N=C(\C)c1cccc(F)c1OC(F)(F)F [compound 354] |  | 17 | 2 |  | 21 | 4 |  | 
CO/N=C(/C(=O)OC)c1cccc(C)c1CO/N=C(\C)c1ccc(F)cc1Cl [compound 256] |  | 50 | 18 |  | 70 | 20 |  | 
CO/N=C(/C(=O)OC)c1cccc(C)c1CO/N=C(\C)c1ccccc1F [Ex. 1, Methyl (2E)-2-[2-[[(E)-3-(2-fluorophenyl)ethylideneamino]oxymethyl]-3-methyl-phenyl]-2-methoxyimino-acetate] | 28 | 80 | 27 | 47 | 90 | 56 |  | 
CO/C=C(/C(=O)OC)c1cccc(C)c1CO/N=C(\C)c1ccc(Cl)c(Cl)c1C(F)(F)F [compound 430] |  | 22 | 6 |  | 37 | 17 |  | 
C#Cc1cc(F)c(F)c(/C(C)=N/OCc2c(C)cccc2/C(=N\OC)C(=O)OC)c1 [compound 242] |  | 87 | 10 |  | 87 | 20 |  | 
CO/C=C(/C(=O)OC)c1ccccc1CO/N=C(\C)c1ccccc1C(F)(F)F [reference compound] | 11 |  |  | 9 |  |  |  | 
CO/N=C(/C(=O)OC)c1cccc(C)c1CO/N=C(\C)c1cc(Cl)ccc1Cl [compound 117] |  | 85 | 10 |  | 88 | 12 |  | 
CNC(=O)/C(=N/OC)c1ccccc1CO/N=C(\C)c1ccc(Cl)c(Cl)c1 [reference compound] |  |  |  |  |  |  | 43 | 77
CNC(=O)/C(=N/OC)c1cccc(C)c1CO/N=C(\C)c1ccc(C(C)=O)cc1 [compound 179] |  | 100 | 47 |  | 90 | 28 |  | 
CNC(=O)/C(=N/OC)c1cccc(C)c1CO/N=C(\C)c1c(F)cc(F)cc1F [compound 170] |  | 9 | 0 |  | 4 | 0 |  | 
CNC(=O)/C(=N/OC)c1cccc(C)c1CO/N=C(\C)c1ccc(F)cc1 [compound 108] |  | 1 | 0 |  | 1 | 0 |  | 
CNC(=O)/C(=N/OC)c1cccc(C)c1CO/N=C(\C)c1cc(F)ccc1Br [compound 248] |  | 33 | 2 |  | 30 | 2 |  | 
CO/N=C(/C(=O)OC)c1ccccc1CO/N=C(\C)c1ccc(Cl)cc1 [reference compound] | 63 |  |  | 43 |  |  |  | 

Structure (SMILES) | PHAKPA (F129L) Disease level (%) P2 at 16 ppm [1] [%] | % PHAKPA (F129L) Disease level P2 at 4 ppm [1] [%] | % PHAKPA (F129L) Disease level P2 at 16 ppm [1] [%] | PHAKPA (F129L) Disease level (%) P6 at 16 ppm [2] [%] | % PHAKPA (F129L) Disease level P6 at 4 ppm [2] [%] | % PHAKPA (F129L) Disease level P6 at 16 ppm [2] [%] | PHAKPA (F129L) Disease level (%) P2 at 4 ppm [1] [%] | PHAKPA (F129L) Disease level (%) P6 at 4 ppm [2] [%]
CO/N=C(/C(=O)OC)c1cccc(C)c1CO/N=C(\C)c1c(C)cccc1C [compound 174] |  | 100 | 100 |  | 80 | 70 |  | 
CNC(=O)/C(=N/OC)c1ccccc1CO/N=C(/c1ccccc1)C(F)F [reference compound] |  |  |  |  |  |  | 43 | 90
CNC(=O)/C(=N/OC)c1cccc(C)c1CO/N=C(\C)c1cc(Br)cc(F)c1F [compound 241] |  | 3 | 0 |  | 33 | 12 |  | 
CO/N=C(/C(=O)OC)c1cccc(C)c1CO/N=C(\C)c1cccc(-c2ccccc2)c1 [compound 97] |  | 4 | 1 |  | 1 | 0 |  | 
C#Cc1cccc(/C(C)=N/OCc2c(C)cccc2/C(=N\OC)C(=O)NC)c1F [compound 401] |  | 17 | 5 |  | 32 | 4 |  | 
CO/N=C(/C(=O)OC)c1cccc(C)c1CO/N=C(\C)c1cccc(Br)c1 [Ex. 56] | 32 | 43 | 24 | 15 | 67 | 19 |  | 
CNC(=O)/C(=N/OC)c1cccc(C)c1CO/N=C(\C)c1ccc(-c2cc(C)on2)cc1 [compound 64] |  | 87 | 73 |  | 80 | 43 |  | 
CO/N=C(/C(=O)OC)c1cccc(C)c1CO/N=C(\C)c1c(C)cccc1F [compound 285] |  | 87 | 50 |  | 90 | 35 |  | 
CO/N=C(/C(=O)OC)c1cccc(C)c1CO/N=C(\C)c1ccc(Cl)c(Cl)c1 [compound 40] |  | 40 | 18 |  | 63 | 22 |  | 
CO/N=C(/C(=O)OC)c1cccc(C)c1CO/N=C(\C)c1ccc(Br)cc1C(F)(F)F [compound 257] |  | 93 | 35 |  | 100 | 57 |  | 
CO/N=C(\C)c1ccc(/C(C)=N/OCc2ccccc2/C(=N\OC)C(=O)OC)cc1 [reference compound] | 57 |  |  | 60 |  |  |  | 
C=Cc1cc(/C(C)=N/OCc2c(C)cccc2/C(=N\OC)C(=O)OC)cc(C(F)(F)F)c1 [compound 147] |  | 73 | 18 |  | 95 | 18 |  | 
CNC(=O)/C(=N/OC)c1ccccc1CO/N=C(\C)c1ccccc1 [reference compound] |  |  |  |  |  |  | 87 | 100
CNC(=O)/C(=N/OC)c1ccccc1CO/N=C(\C)c1cccc(-c2noc(C(F)(F)F)n2)c1 [reference compound] | 23 |  |  | 32 |  |  |  | 
CO/N=C(/C(=O)OC)c1cccc(C)c1CO/N=C(\C)c1ccc(F)cc1C(F)(F)F [compound 263] |  | 80 | 15 |  | 73 | 22 |  | 
CNC(=O)/C(=N/OC)c1cccc(C)c1CO/N=C(\C)c1cccc(C(C)C)c1 [compound 105] |  | 18 | 1 |  | 39 | 13 |  | 
CO/N=C(/C(=O)OC)c1cccc(C)c1CO/N=C(\C)c1ccccc1OC [compound 123] |  | 100 | 82 |  | 90 | 78 |  | 
CNC(=O)/C(=N/OC)c1cccc(C)c1CO/N=C(\C)c1ccccc1Br [Ex. 120] | 6 | 43 | 4 | 15 | 90 | 8 |  | 
